Reference: ChEMBL document CHEMBL1944552, “Pharmacophore-based discovery of a novel cytosolic phospholipase A(2)α inhibitor” (Bioorg Med Chem Lett, 2012)

Assays:
[1] = Inhibition of human recombinant His-tagged cPLA2alpha expressed in baculovirus-infected Sf9 cells assessed as residual activity at 10 uM after 1 hr by RP-HPLC analysis
[2] = Aqueous solubility of the compound at >10 uM; format: physicochemical; conditions: buffer
[3] = Inhibition of cPLA2alpha
[4] = Inhibition of human recombinant His-tagged cPLA2alpha expressed in baculovirus-infected Sf9 cells after 1 hr by RP-HPLC analysis
[5] = Inhibition of cPLA2alpha-mediated [3H]-arachidonic acid release in Ca2+ ionophore A23187-stimulated human monocytes preincubated for 15 mins prior Ca2+ ionophore A23187 stimulation measured after 5 mins by scintillation counting

| solubility [2] | Structure (SMILES) | Activity [1] [%] | other results |
| --- | --- | --- | --- |
| Insoluble | CCCCCCCCCCCCCCCCCC1=NCCN1CS(=O)(=O)O | 94.7 | – |
| – | CN(CCc1ccccc1)C(=O)CSc1ccc(OCC(=O)COc2ccc(C(=O)O)cc2)cc1 | – | IC50 [3]: 34 µM |
| Insoluble | COc1cc(/N=N/c2ccc3cc(S(=O)(=O)O)cc(S(=O)(=O)O)c3c2)ccc1/N=N/c1ccc(NC(=O)c2ccc(NC(=O)c3ccccc3)cc2)cc1C | 62.7 | – |
| Insoluble | CCCCCCCCCCCCCCCc1cc(=O)n(-c2ccc(NC(=O)/C=C/C(=O)O)cc2)n1C | 92.6 | – |
| Insoluble | CCCCCCCCCCCCCCCCOc1ccc(S(=O)(=O)N/N=c2/sc3ccc(S(=O)(=O)O)cc3n2C)cc1C(=O)O | 70.2 | – |
| Insoluble | Cc1cc(-c2ccc(/N=N/c3c(S(=O)(=O)O)cc4cc(S(=O)(=O)O)cc(N)c4c3O)c(C)c2)ccc1/N=N/c1ccc2c(S(=O)(=O)O)ccc(N)c2c1O | 87.5 | – |
| Insoluble | CCCCCCCCCCCCCCCC1=NN(c2ccc(S(=O)(=O)O)cc2)C(=O)C1/N=N/c1ccccc1 (centres undefined) | 77.1 | – |
| – | O=C(COc1ccc(SCCCCSc2nccs2)cc1)COc1ccc(C(=O)O)cc1 | – | IC50 [3]: 0.76 µM |
| Insoluble | Cc1cc(N)ccc1/N=N/c1ccc(/N=N/c2ccc(/N=N/c3ccc4cc(S(=O)(=O)O)cc(S(=O)(=O)O)c4c3)c(C)c2)c(C)c1 | 81.9 | – |
| – | Cn1ccnc1SCCCCOc1ccc(OCC(=O)COc2ccc(C(=O)O)cc2)cc1 | – | IC50 [3]: 63 µM |
| – | O=C(COc1ccc(SCCCCCc2ccccc2)cc1)COc1ccc(C(=O)O)cc1 | – | IC50 [3]: 0.004 µM |
| Insoluble | CCCCCCCCCCCCCCCCOc1ccc(C(=O)O)cc1 | 88.4 | – |
| – | CCCCCCCCCCCCCCCCOc1ccc(C(=O)O)cc1NC(=O)/C(=N/O)C(C)=O | – | IC50 [4]: 4 µM; IC50 [5]: 5 µM |
| – | O=C(COc1ccc(C(=O)O)cc1)COc1ccc(C(=O)NCCCCc2ccccc2)cc1 | – | IC50 [3]: 20 µM |
| Insoluble | CCCCCCCCCCCCCCCCN(C)c1ccc(S(=O)(=O)O)cc1[N+](=O)[O-] | 61.4 | – |
| Insoluble | CCCCCCCCCCCCCCCc1nnc(SCC(=O)O)[nH]1 | 85.1 | – |
| Insoluble | CCCCCCCCCCCCCCCCCC1=NCCN1CCN(CS(=O)(=O)O)CS(=O)(=O)O | 106 | – |
